Measured values as given in ChEMBL document CHEMBL3885861, “Open TG-GATES”.

Species: Rattus norvegicus
Experiment: Open TG-GATES - Regimen: Single
Assay type: toxicity, organism-based, Sprague-Dawley
Parameters: regimen Single, gender Male, age 6 weeks
Settings: in vivo, po, 60 mg/kg, route gavage, dose level High; for APTT / Bas / Eos / Fbg / Hb / Ht / Lym / MCH / MCHC / MCV / Mono / Neu / PT / Plat / RBC / Ret / WBC: tissue Blood; for LIVER: tissue Liver; for A/G / ALP / ALT / AST / BUN / CRE / Ca / Cl / DBIL / GLC / IP / K / LDH / Na / PL / RALB / TBIL / TC / TG / TP / gamma-GTP: tissue Plasma

O=[N+]([O-])c1ccc(O)c([N+](=O)[O-])c1 [2,4-DINITROPHENOL]
TERMINAL_BW (9 h): 192.8 g | APTT (9 h): 16.1 s | Bas (9 h): 0% | Eos (9 h): 0.5% | Fbg (9 h): 244.8 mg/dL | Hb (9 h): 12.6 g/dL | Ht (9 h): 37.6% | Lym (9 h): 74.5% | MCH (9 h): 21.8 pg | MCHC (9 h): 33.5% | MCV (9 h): 65 fL | Mono (9 h): 5.8% | Neu (9 h): 19.2% | PT (9 h): 11.9 s | Plat (9 h): 117.2 x10_4/uL | RBC (9 h): 579.2 x10_4/ul | Ret (9 h): 8.8% | WBC (9 h): 92.8 x10_2/uL | LIVER (9 h): 7.3 g | A/G (9 h): 2.5 | ALP (9 h): 1343 IU/L | ALT (9 h): 32.2 IU/L | AST (9 h): 87.2 IU/L | BUN (9 h): 20 mg/dL | CRE (9 h): 0.5 mg/dL | Ca (9 h): 11.1 mg/dL | Cl (9 h): 108 meq/L | DBIL (9 h): 0.02 mg/dL | GLC (9 h): 247.5 mg/dL | IP (9 h): 9.7 mg/dL | K (9 h): 4.7 meq/L | LDH (9 h): 154.8 IU/L | Na (9 h): 138.2 meq/L | PL (9 h): 146.5 mg/dL | RALB (9 h): 3.8 g/dL | TBIL (9 h): 0.0225 mg/dL | TC (9 h): 88.2 mg/dL | TG (9 h): 56.2 mg/dL | TP (9 h): 5.4 g/dL | gamma-GTP (9 h): 0.5 IU/L | TERMINAL_BW (24 h): 207.1 g | APTT (24 h): 15.7 s | Bas (24 h): 0% | Eos (24 h): 0.8% | Fbg (24 h): 263.6 mg/dL | Hb (24 h): 13.3 g/dL | Ht (24 h): 39.9% | Lym (24 h): 71% | MCH (24 h): 21.6 pg | MCHC (24 h): 33.3% | MCV (24 h): 64.7 fL | Mono (24 h): 8% | Neu (24 h): 20.4% | PT (24 h): 11.7 s | Plat (24 h): 123.2 x10_4/uL | RBC (24 h): 617.2 x10_4/ul | Ret (24 h): 8.5% | WBC (24 h): 120.4 x10_2/uL | LIVER (24 h): 10.7 g | A/G (24 h): 2.4 | ALP (24 h): 1582.4 IU/L | ALT (24 h): 35.6 IU/L | AST (24 h): 73.8 IU/L | BUN (24 h): 19.2 mg/dL | CRE (24 h): 0.4 mg/dL | Ca (24 h): 11.6 mg/dL | Cl (24 h): 105.2 meq/L | DBIL (24 h): 0.018 mg/dL | GLC (24 h): 176.2 mg/dL | IP (24 h): 6.4 mg/dL | K (24 h): 4.6 meq/L | LDH (24 h): 149.2 IU/L | Na (24 h): 140 meq/L | PL (24 h): 173 mg/dL | RALB (24 h): 4 g/dL | TBIL (24 h): 0.018 mg/dL | TC (24 h): 93.4 mg/dL | TG (24 h): 169.6 mg/dL | TP (24 h): 5.7 g/dL | gamma-GTP (24 h): 0.8 IU/L
